System: diarrhea-predominant IBS subjects
Assay: Study S241.3.009: weekly diary questions on adequate relief
Assay type: in vivo, human
Settings: 2 mg TID, ITT; for Number of months a subject was a responder during Months 1 to 3: IBS symptoms, One month / Number of months a subject was a responder during Months 1 to 3: IBS symptoms, Three months / Number of months a subject was a responder during Months 1 to 3: IBS symptoms, Two months / Number of months a subject was a responder during Months 1 to 3: IBS symptoms, Zero months / Number of months a subject was a responder during Months 1 to 3: Abdominal pain/discomfort, One month / Number of months a subject was a responder during Months 1 to 3: Abdominal pain/discomfort, Three months / Number of months a subject was a responder during Months 1 to 3: Abdominal pain/discomfort, Two months / Number of months a subject was a responder during Months 1 to 3: Abdominal pain/discomfort, Zero months / Number of months a subject was a responder during Months 1 to 3: Abnormal bowel habits, One month / Number of months a subject was a responder during Months 1 to 3: Abnormal bowel habits, Three months / Number of months a subject was a responder during Months 1 to 3: Abnormal bowel habits, Two months / Number of months a subject was a responder during Months 1 to 3: Abnormal bowel habits, Zero months / Responder rate, adequate relief of IBS symptoms / Responder rate, adequate relief of abdominal pain/discomfort / Responder rate, adequate relief of abnormal bowel habits: monthly LOCF imputation; for Number of subjects who were responders during the 26-week treatment period: Adequate relief of IBS symptoms / Number of subjects who were responders during the 26-week treatment period: Adequate relief of abdominal pain/discomfort / Number of subjects who were responders during the 26-week treatment period: Adequate relief of abnormal bowel habits: observed case
Procedure: Study S241.3.009 was a Phase III, a double-blind, placebo-controlled, randomized, multinational study to investigate the safety and efficacy of 2 mg TID of cilansetron over 26 weeks in diarrhea-predominant IBS subjects. The study was conducted in 146 multinational study centers. A total of 1307 subjects consented to participate, and 806 subjects were randomized. A total of 792 subjects were analyzed for efficacy and 799 subjects were analyzed for safety. Diagnosis and main criteria for inclusion were IBS subjects satisfying the Rome I criteria (1992); the diarrhea-predominant sub-population of the Rome II criteria; and a minimum abdominal pain/discomfort, stool frequency and consistency determined during the run-in period. Subjects were treated with cilansetron 2 mg tablets given orally TID or matching placebo tablets given orally TID for 26 weeks.
The primary efficacy parameter was the overall response rate for IBS symptoms, based on the weekly question concerning adequate relief of IBS symptoms (abdominal pain/discomfort, abnormal bowel habits) over the 26 weeks period. A responder was a subject who responded “yes” at least 50% of the time during his/her treatment period, with minimum treatment duration of four weeks. The two main secondary efficacy parameters were overall responder rate based on the weekly question on adequate relief of abdominal pain/discomfort and abnormal bowel habits during the 26-week treatment period. The onset of action of cilansetron was also examined using daily diary data (stool frequency, and ratings of urgency and severity) during the initial 8 weeks of trial participation. An additional key secondary efficacy parameter was the number of months (one month equals four weeks) up to six months (24-weeks) that a subject was a responder for IBS symptoms, where a responder was defined as a subject who answered the weekly question with “yes” at least twice for that month. The responder rate for the weekly diary questions on adequate relief at each month and all months, the adequate relief rate, the number of subjects with adequate relief by week, daily diary questions, IBS-QOL scores, and the interruption of activities were also assessed. Safety was evaluated by physical examination, ECG, vital signs, laboratory evaluations, concomitant medications, and AEs.
Studies S24 1.3.OO6, S24 1.3.0 1 1, and S24 1.3.009 used the following efficacy measurements: • The subjects answered the following three questions with “yes” or “no” using a phone diary at the end of each week: • a) During the last week, did you experience adequate relief of your IBS symptoms, such as abdominal pain, abdominal discomfort, abnormal bowel habits? • b) During the last week, did you experience adequate relief of your abdominal pain and/or discomfort? • c) During the last week, did you experience adequate relief of your abnormal bowel habits? • The subjects rated the following symptoms using the phone diary at the end of each day: • abdominal pain/discomfort (five-point scale); • stool consistency (seven-point Bristol Stool Scale); • stool frequency (number of bowel movements each day); • urgency (five-point scale); • straining (yes or no); • feeling of incomplete defecation (yes or no); • bloating or feeling of abdominal distension (five-point scale). • In Studies S241 A006 and S241.3.009, subjects completed the IBS-QOL Survey at Baseline (Day 1) and at the end of treatment. In Study S24 1.3.0 1 1, subjects completed the IBS-QOL Survey at Baseline (Day 1), at the end of the three-month treatment period, and at the end of rerandomized treatment.
In all three pivotal efficacy studies, the primary and main secondary efficacy parameters were based on the weekly diary questions on adequate relief and included the following: • 1. Number of months (one month equals four weeks) that a subject was a responder for the weekly diary questions on adequate relief. […]

[1] = Duration of IBS: >24 months to ≦48 months
[2] = Duration of IBS: >48 months to ≦120 months

Cc1nccn1C[C@H]1CCc2c(c3cccc4c3n2CCC4)C1=O [Cilansetron, (R)-(−)-4,5,6,8,9,10-hexahydro-10-[(2-methyl-1H-imidazol-1-yl)methyl]-11H-pyrido-[3,2,1-jk]-carbazol-11-one]
Number of months a subject was a responder during Months 1 to 3: IBS symptoms, One month [1]: 9 (9) n (%)
Number of months a subject was a responder during Months 1 to 3: IBS symptoms, Three months [1]: 35 (36) n (%)
Number of months a subject was a responder during Months 1 to 3: IBS symptoms, Two months [1]: 21 (22) n (%)
Number of months a subject was a responder during Months 1 to 3: IBS symptoms, Zero months [1]: 31 (32) n (%)
Number of subjects who were responders during the 26-week treatment period: Adequate relief of IBS symptoms [1]: 56 (58) n (%)
Number of subjects who were responders during the 26-week treatment period: Adequate relief of abdominal pain/discomfort [1]: 60 (63) n (%)
Number of subjects who were responders during the 26-week treatment period: Adequate relief of abnormal bowel habits [1]: 63 (66) n (%)
Number of months a subject was a responder during Months 1 to 3: Abdominal pain/discomfort, One month [2]: 21 (16) n (%)
Number of months a subject was a responder during Months 1 to 3: Abdominal pain/discomfort, Three months [2]: 45 (34) n (%)
Number of months a subject was a responder during Months 1 to 3: Abdominal pain/discomfort, Two months [2]: 23 (18) n (%)
Number of months a subject was a responder during Months 1 to 3: Abdominal pain/discomfort, Zero months [2]: 42 (32) n (%)
Number of months a subject was a responder during Months 1 to 3: Abnormal bowel habits, One month [2]: 19 (15) n (%)
Number of months a subject was a responder during Months 1 to 3: Abnormal bowel habits, Three months [2]: 51 (39) n (%)
Number of months a subject was a responder during Months 1 to 3: Abnormal bowel habits, Two months [2]: 26 (20) n (%)
Number of months a subject was a responder during Months 1 to 3: Abnormal bowel habits, Zero months [2]: 35 (27) n (%)
Number of months a subject was a responder during Months 1 to 3: IBS symptoms, One month [2]: 16 (12) n (%)
Number of months a subject was a responder during Months 1 to 3: IBS symptoms, Three months [2]: 46 (35) n (%)
Number of months a subject was a responder during Months 1 to 3: IBS symptoms, Two months [2]: 28 (21) n (%)
Number of months a subject was a responder during Months 1 to 3: IBS symptoms, Zero months [2]: 41 (31) n (%)
Number of subjects who were responders during the 26-week treatment period: Adequate relief of IBS symptoms [2]: 72 (55) n (%)
Number of subjects who were responders during the 26-week treatment period: Adequate relief of abdominal pain/discomfort [2]: 68 (52) n (%)
Number of subjects who were responders during the 26-week treatment period: Adequate relief of abnormal bowel habits [2]: 79 (60) n (%)
Number of months a subject was a responder during Months 1 to 3: Abdominal pain/discomfort, One month (Duration of IBS: >120 months): 15 (21) n (%)
Number of months a subject was a responder during Months 1 to 3: Abdominal pain/discomfort, Three months (Duration of IBS: >120 months): 22 (31) n (%)
Number of months a subject was a responder during Months 1 to 3: Abdominal pain/discomfort, Two months (Duration of IBS: >120 months): 15 (21) n (%)
Number of months a subject was a responder during Months 1 to 3: Abdominal pain/discomfort, Zero months (Duration of IBS: >120 months): 20 (28) n (%)
Number of months a subject was a responder during Months 1 to 3: Abnormal bowel habits, One month (Duration of IBS: >120 months): 10 (14) n (%)
Number of months a subject was a responder during Months 1 to 3: Abnormal bowel habits, Three months (Duration of IBS: >120 months): 27 (38) n (%)
Number of months a subject was a responder during Months 1 to 3: Abnormal bowel habits, Two months (Duration of IBS: >120 months): 14 (19) n (%)
Number of months a subject was a responder during Months 1 to 3: Abnormal bowel habits, Zero months (Duration of IBS: >120 months): 21 (29) n (%)
Number of months a subject was a responder during Months 1 to 3: IBS symptoms, One month (Duration of IBS: >120 months): 14 (19) n (%)
Number of months a subject was a responder during Months 1 to 3: IBS symptoms, Three months (Duration of IBS: >120 months): 23 (32) n (%)
Number of months a subject was a responder during Months 1 to 3: IBS symptoms, Two months (Duration of IBS: >120 months): 15 (21) n (%)
Number of months a subject was a responder during Months 1 to 3: IBS symptoms, Zero months (Duration of IBS: >120 months): 20 (28) n (%)
Number of subjects who were responders during the 26-week treatment period: Adequate relief of IBS symptoms (Duration of IBS: >120 months): 40 (56) n (%)
Number of subjects who were responders during the 26-week treatment period: Adequate relief of abdominal pain/discomfort (Duration of IBS: >120 months): 41 (57) n (%)
Number of subjects who were responders during the 26-week treatment period: Adequate relief of abnormal bowel habits (Duration of IBS: >120 months): 42 (58) n (%)
Number of months a subject was a responder during Months 1 to 3: Abdominal pain/discomfort, One month (Duration of IBS: ≦24 months): 11 (11) n (%)
Number of months a subject was a responder during Months 1 to 3: Abdominal pain/discomfort, Three months (Duration of IBS: ≦24 months): 55 (57) n (%)
Number of months a subject was a responder during Months 1 to 3: Abdominal pain/discomfort, Two months (Duration of IBS: ≦24 months): 13 (14) n (%)
Number of months a subject was a responder during Months 1 to 3: Abdominal pain/discomfort, Zero months (Duration of IBS: ≦24 months): 17 (18) n (%)
Number of months a subject was a responder during Months 1 to 3: Abnormal bowel habits, One month (Duration of IBS: ≦24 months): 9 (9) n (%)
Number of months a subject was a responder during Months 1 to 3: Abnormal bowel habits, Three months (Duration of IBS: ≦24 months): 51 (53) n (%)
Number of months a subject was a responder during Months 1 to 3: Abnormal bowel habits, Two months (Duration of IBS: ≦24 months): 18 (19) n (%)
Number of months a subject was a responder during Months 1 to 3: Abnormal bowel habits, Zero months (Duration of IBS: ≦24 months): 18 (19) n (%)
Number of months a subject was a responder during Months 1 to 3: IBS symptoms, One month (Duration of IBS: ≦24 months): 16 (17) n (%)
Number of months a subject was a responder during Months 1 to 3: IBS symptoms, Three months (Duration of IBS: ≦24 months): 46 (48) n (%)
Number of months a subject was a responder during Months 1 to 3: IBS symptoms, Two months (Duration of IBS: ≦24 months): 16 (17) n (%)
Number of months a subject was a responder during Months 1 to 3: IBS symptoms, Zero months (Duration of IBS: ≦24 months): 18 (19) n (%)
Number of subjects who were responders during the 26-week treatment period: Adequate relief of IBS symptoms (Duration of IBS: ≦24 months): 66 (69) n (%)
Number of subjects who were responders during the 26-week treatment period: Adequate relief of abdominal pain/discomfort (Duration of IBS: ≦24 months): 70 (73) n (%)
Number of subjects who were responders during the 26-week treatment period: Adequate relief of abnormal bowel habits (Duration of IBS: ≦24 months): 69 (72) n (%)
Responder rate, adequate relief of IBS symptoms (Each month of Months 1 to 3): 150 (38) n (%)
Responder rate, adequate relief of abdominal pain/discomfort (Each month of Months 1 to 3): 159 (40) n (%)
Responder rate, adequate relief of abnormal bowel habits (Each month of Months 1 to 3): 165 (42) n (%)
Responder rate, adequate relief of IBS symptoms (Each month of Months 1 to 6): 121 (31) n (%)
Responder rate, adequate relief of abdominal pain/discomfort (Each month of Months 1 to 6): 133 (34) n (%)
Responder rate, adequate relief of abnormal bowel habits (Each month of Months 1 to 6): 136 (34) n (%)
Responder rate, adequate relief of IBS symptoms (Each month of Months 4 to 6): 193 (49) n (%)
Responder rate, adequate relief of abdominal pain/discomfort (Each month of Months 4 to 6): 202 (51) n (%)

Source: patent publication US20090176817A1, “Method of Treatment of Diarrhea-Predominant Irritable Bowel Syndrome in a Subject” (priority 2005, published 2009)
